# Experimental data reported in patent US20050113292A1 (priority 2003, published 2005).
# pEC50, pIC50: −log10 of the molar value.
# Tests used:
# [1] = test system: HIV-1 mediated cell-cell fusion (R8 virus)
# HIV-1 = assay type: cell-based
# [2] = mediated cell-cell fusion (R8 virus)
smiles,measurement,setting,value
CC[C@H](C)[C@H](NC(=O)[C@H](CC(C)C)NC(=O)[C@H](CO)NC(=O)[C@H](Cc1c[nH]cn1)NC(=O)[C@@H](NC(=O)[C@H](CC(C)C)NC(=O)[C@H](CO)NC(=O)[C@@H](NC(=O)[C@H](Cc1ccc(O)cc1)NC(=O)[C@H](CC(N)=O)NC(=O)[C@H](CC(N)=O)NC(=O)[C@@H](NC(=O)[C@H](CCC(=O)O)NC(=O)[C@H](CCCNC(=N)N)NC(=O)[C@H](CC(=O)O)NC(=O)[C@H](Cc1c[nH]c2ccccc12)NC(=O)[C@H](CCC(=O)O)NC(=O)[C@H](CCSC)NC(=O)[C@@H]1Cc2c([nH]c3ccccc23)C(C(=O)NCCCC[C@H](NC(=O)CCNC(=O)C2N[C@H](C(=O)N[C@@H](CCSC)C(=O)N[C@@H](CCC(=O)O)C(=O)N[C@@H](Cc3c[nH]c4ccccc34)C(=O)N[C@@H](CC(=O)O)C(=O)N[C@@H](CCCNC(=N)N)C(=O)N[C@@H](CCC(=O)O)C(=O)N[C@H](C(=O)N[C@@H](CC(N)=O)C(=O)N[C@@H](CC(N)=O)C(=O)N[C@@H](Cc3ccc(O)cc3)C(=O)N[C@H](C(=O)N[C@@H](CO)C(=O)N[C@@H](CC(C)C)C(=O)N[C@H](C(=O)N[C@@H](Cc3c[nH]cn3)C(=O)N[C@@H](CO)C(=O)N[C@@H](CC(C)C)C(=O)N[C@H](C(=O)N[C@@H](CCC(=O)O)C(=O)N[C@@H](CCC(=O)O)C(=O)N[C@@H](CO)C(=O)N[C@@H](CCC(N)=O)C(=O)N[C@@H](CC(N)=O)C(=O)N[C@@H](CCC(N)=O)C(=O)N[C@@H](CCC(N)=O)C(=O)N[C@@H](CCC(=O)O)C(=O)N[C@@H](CCCCN)C(=O)N[C@@H](CC(N)=O)C(=O)N[C@@H](CCC(=O)O)C(=O)N[C@@H](CCC(N)=O)C(=O)N[C@@H](CCC(=O)O)C(=O)N[C@@H](CC(C)C)C(=O)N[C@@H](CC(C)C)C(=O)O)[C@@H](C)CC)[C@@H](C)CC)[C@@H](C)O)[C@@H](C)CC)Cc3c2[nH]c2ccccc32)C(=O)N[C@@H](CO)C(=O)N[C@@H](CO)C(=O)N[C@@H](C)C(N)=O)N1)[C@@H](C)CC)[C@@H](C)O)[C@@H](C)CC)C(=O)N[C@@H](CCC(=O)O)C(=O)N[C@@H](CCC(=O)O)C(=O)N[C@@H](CO)C(=O)N[C@@H](CCC(N)=O)C(=O)N[C@@H](CC(N)=O)C(=O)N[C@@H](CCC(N)=O)C(=O)N[C@@H](CCC(N)=O)C(=O)N[C@@H](CCC(=O)O)C(=O)N[C@@H](CCCCN)C(=O)N[C@@H](CC(N)=O)C(=O)N[C@@H](CCC(=O)O)C(=O)N[C@@H](CCC(N)=O)C(=O)N[C@@H](CCC(=O)O)C(=O)N[C@@H](CC(C)C)C(=O)N[C@@H](CC(C)C)C(=O)O (stereo partly drawn) [Compound 2α-C34],"fold increase over monomer, cell-cell fusion",[1],74 fold
same,pEC50,[1]; [2],9.33
same,pIC50,[1]; [2],9.33
same,"fold increase of potency over monomer, R8 virus",T-tropic (R8) HIV-1,42 fold
same,"fold increase of potency over monomer, BAL virus",M-tropic (BAL) HIV-1,45 fold
same,pIC50,M-tropic (BAL) HIV-1; M-tropic (BAL),10.05
same,Neutralization (%),HIV-1,<5%
